What was measured:
γ globin mRNA = conditions: continuous intravenous administration; cited from earlier work
[1] = Platelet counts in baboon with pulse administration; assay type: in vivo; conditions: increased from 240,000
Friend leukemia cells = conditions: cultured Friend leukemia cells; cited from earlier work
[2] = DNA fragmentation assays (cell viability); assay type: cell-based; conditions: pulsed administration
Excerpt: Normal cell viability, the viability of an untransformed or uninfected cell, can be determined from analyzing the effects of the composition on one or more biological processes of the cell. Detrimental interference with one or more of these cellular processes becomes significant when the process becomes abnormal. Examples of quantitatable and qualifiable biological processes include the processes of cell division, protein synthesis, nucleic acid (DNA or RNA) synthesis, nucleic acid (principally DNA) fragmentation and apoptosis. Others processes include specific enzyme activities, the activities of the cellular transportation systems such as the transportation of amino acids by system A (neutral), system B (acidic) or system C (basic), and the expression of a cell surface protein. […] Abnormal cell division, for example, can be mitosis which occurs too rapidly, as in a malignancy, or unstably, resulting in programmed cell death or apoptosis, detected by increased DNA degradation. The determination of abnormal cell viability can be made on comparison with untreated control cells. Compositions preferably increase normal cell viability. Increased cell viability can be determined by those of ordinary skill in the art using, for example, DNA fragmentation analysis. […] Determinations of increased or decreased viability can also be concluded from an analysis of the results of multiple different assays. Where multiple tests provide conflicting results, accurate conclusions can still be drawn by those of ordinary skill based upon the cell type, the correctness or correlation of the tests with actual conditions and the type of composition.
Patients with blood disorders are typically quite infirm with, for example, iron damaged organs and systems. Most treatments further tax the patient's already frail health in an effort to combat the disorder.

Bfu-e = assay: Erythroid colony (Bfu-e) proliferation with maximal growth factors, normal subject; assay type: cell-based, human; conditions: 0.2-0.5 mM where given
Excerpt: Erythroid cells were obtained, as described in Example 1, from a normal subject and cultured on semi-solid medium in the presence of a maximal amount of erythroid growth factors including IL-6, GM-CSF, SCF and EPO. Erythroid proliferation in the presence of these factors is expected to be maximal and, therefore, any increases observed would be significant.

human fetal liver cells = assay: Erythroid progenitor colony proliferation, fetal liver cells; assay type: cell-based; conditions: 0.2 mM, maximal growth factors, p<0.025
Experimental: In a third experiment, human fetal liver cells were also tested. As fetal cells are known not to respond to the presence of the growth factors, any increases observed are highly significant. Erythroid progenitor cultures were established from fetal liver and plated with maximal amounts of growth factors. To these plates were added; lane 1, 2-(4′-methoxyphenoxy) propionic acid; lane 2, phenoxyacetic acid; and lane 3, α-methylhydrocinnamic acid; all at a concentration of 0.2 mM.

[3] = Total hemoglobin in phlebotomized anemic baboons, continuous versus pulse therapy; assay type: in vivo, baboon
Experimental: Therapy was administered to anemic baboons who were being phlebotomized 5-10 ml/kg of blood per day on a continuous basis. EPO was administered daily at 300 U/kg/dose. Arginine butyrate was administered daily at 700 mg/kg/day for 5 days and phenoxyacetic acid at 500 mg/kg/day daily over 8 hours and at 1000 mg/kg/day for 24 hours/day daily for five days each. […] With continuous arginine butyrate treatment, hemoglobin remained essentially stable at 6.7 to 6.9 gram/dl. With continuous treatment with phenoxyacetic acid, hemoglobin levels remained stable at 7.0 gram/dl to 6.9 gram/dl during 8 hour therapy and declined from 6.8 to 4.5 when the drug was given for 24 hours per day for 5 days.

fetal globin [4] = assay: Fetal globin production in erythroid progenitor colonies (Bfu-e), sickle cell anemia patient; assay type: cell-based, human; conditions: controls 48% of non-α globin
[5] = tested on: system A transport of amino acids; assay: Uptake of 3H-methyl-aminoisobutyric acid (MeAIB) into erythroblasts; assay type: cell-based
Experimental: Erythroblasts were tested for alterations in uptake of radio-labelled amino acid (^3H-methyl-aminoisobutyric acid; MeAIB) in the presence of AB (arginine butyrate), AMHCA (α-methylhydrocinnamic acid), PAA (phenoxyacetic acid), and IBT (isobutyramide), each at 2.0 mM.

fetal globin [6] = assay: Proportion of fetal globin-expressing cells in culture, fluorescent antibodies, sickle cell patient; assay type: cell-based, human; conditions: 0.2 mM, 14 days, controls 40.7%
Experimental: In a fourth experiment, erythroid cells were obtained from a sickle cell patient. These cells were established in culture both with and without test a variety of test compounds. Cultures were incubated for 14 days in methylcellulose media with maximal concentrations of all hematopoietic growth factors (GM-CSF, SCF, EPO). Colonies were analyzed using fluorescent monoclonal antibodies against fetal globin to determine the proportion of erythroid cells that expressed fetal globin.

[7] = Continuous butyrate therapy in a child with beta thalassemia; assay type: in vivo, human
Excerpt: Treatment period, the ten month duration of butyrate therapy, is shown between the vertical lines.

[8] = Weekly then pulse butyrate in a patient with β° thalassemia; assay type: in vivo, human
Experimental: A plateau or even a decline in hematologic response has been commonly observed when butyrate therapy is given continuously. This is illustrated in a patient with β° thalassemia, who responded to weekly butyrate treatment with an increase in fetal globin synthesis and improved globin chain balance from 0.5 to 0.85 non-α to α-globin chain ratios (FIG. 8). A 3-fold increase in γ globin mRNA was detected 24-36 hours after therapy. A 1-1.5 gram/dl rise in total hemoglobin followed the increase in […] synthesis and mRNA, but total Hgb then plateaued and even declined slightly (solid line). A decline in ferritin is also frequently observed (lower panel), even though the patient received single daily supplements.
When therapy was decreased to shorter pulses for 2-3 days on alternate weeks, total hemoglobin rose another 2 grams/dl. Increased iron supplements were required to support the active erythropoiesis, despite the presence of iron overload.
The therapeutic rise in total hemoglobin plateaued or declined on weekly therapy. With a change to pulse therapy, shown by the curved arrow, there was a further rise in total Hgb to 9.6 gm/dl, a level that no longer requires transfusions.
A three fold increase in γ globin mRNA was detected 24 to 36 hours after therapy.
A 1.0 to 1.5 gram per deciliter rise in total hemoglobin followed the increase in γ globin mRNA synthesis for 30 to 50 days, but total Hgb plateaued and even declined slightly (FIG. 8). A decline in ferritin was also frequently observed (FIG. 10) even though the patient received single daily supplements.
Increased iron supplements were required to support active erythropoiesis, despite the iron overload (FIG. 10).

[9] = Apoptosis (fragmented DNA stain) of circulating erythroblasts, Hb-E beta thalassemia patient; assay type: in vivo, human
Excerpt: Peripheral blood from a patient with Hb-E beta thalassemia has 1200 NRBCs per 100 white blood cells which allows for rapid monitoring for apoptosis. […] A plateau or even a decline in hematologic response has been observed when butyrate therapy is given continuously.

[10] = Globin chain synthesis at varied butyrate infusion rates in patients; assay type: in vivo, human; conditions: infusion at 150 mg per kg per hour; baseline 0.6
Experimental: Infusion rates were varied between 20 to 150 mg per kg per hour in several patients who have large proportions of circulating nucleated erythroblasts. Globin chain synthesis was assayed at different time points before and following drug infusions.

[11] = tested on: K562 human erythroleukemia cells; conditions: cited from earlier work

SMILES: Nc1ncn([C@@H]2O[C@H](CO)[C@@H](O)[C@H]2O)c(=O)n1 [AZA, 5-azacytidine]
- increase in γ globin mRNA of bone marrow cells (γ globin mRNA): five- to seven-fold

SMILES: O=C(O)CCc1ccccc1 [dihydrocinnamic acid]
- platelet counts after treatment [1]: 767,000

SMILES: CC(C)C(=O)O [isobutyrate]
- hemoglobin synthesis (Friend leukemia cells): induced hemoglobin synthesis

SMILES: O=C(O)COc1ccccc1 [phenoxyacetic acid]
- DNA fragmentation in fragmentation assays [2]: reduce DNA fragmentation
- Bfu-e growth (Bfu-e): further increase Bfu-e growth
- proliferation of colonies (human fetal liver cells): increased proliferation of colonies
- total hemoglobin after treatment ([3]; continuous, 500 mg/kg/day daily over 8 hours, from 7.0): 6.9 gram/dl
- total hemoglobin after treatment ([3]; continuous, 1000 mg/kg/day, 24 hours per day for 5 days, declined from 6.8): 4.5
- total hemoglobin after treatment ([3]; pulse, 2 oral doses per week, 500 mg/kg on days 1 and 4, in one week, from 6.9): 7.6 gram/dl
- increase in fetal globin over controls (fetal globin [4]): 34%
- system A transport of amino acids [5]: do not significantly alter system A transport of amino acids
- amino acid (MeAIB) uptake / transport ([5]; 2.0 mM, relative to untreated fetal liver erythroid cells): did not inhibit amino acid transport
- Increase in γ-Globin Expressing Cells (fetal globin [6]): 54.6%

SMILES: CCCC(=O)O [butyrate]
- total hemoglobin ([7]; after 4 months of continuous weekly treatment): 7.5-8.4 gm/dl
- total hemoglobin, peak ([7]; continuous therapy, baseline 5.6 grams/dl): 9.9 gm/dl
- total hemoglobin, plateau ([7]; continuous therapy, for 2 months after peak): 8.0-8.8 gm/dl
- total Hgb reached ([8]; after change to pulse therapy): 9.6 gm/dl
- non-α to α-globin chain ratios ([8]; weekly butyrate, improved from 0.5): 0.85
- rise in total hemoglobin ([8]; weekly butyrate, then plateaued): 1-1.5 gram/dl
- apoptosis, red stain of fragmented DNA ([9]; after high-dose): red staining of most cells
- apoptosis, red stain of fragmented DNA ([9]; after low-dose pulse therapy): no red-staining erythroblasts are observed
- non-α globin to α globin ratio [10]: 0.77

SMILES: CCC(=O)O [propionate]
- ability to increase fetal globin expression [11]: most effective
- hemoglobin synthesis (Friend leukemia cells): induced hemoglobin synthesis

SMILES: CC(=O)O [acetate]
- hemoglobin synthesis (Friend leukemia cells): induced hemoglobin synthesis

From patent publication US6403647B1, “Pulsed administration of compositions for the treatment of blood disorders” (priority 1996, dated 2002)
